# Like-named read-outs stand apart in the source and are kept apart here.
# Experiments:
# [1] = target: 3-phosphoinositide-dependent kinase 1 (PDK1); conditions: cited from earlier work
# protein kinase B (PKB) = target: protein kinase B (PKB); design: method as in PMID 16757698, PMID 14973075; conditions: ref 50 and 53; cited from earlier work
# [2] = target: phosphodiesterase-5 (PDE51A); design: method as in PMID 17383621; conditions: ref 54; cited from earlier work
# [3] = target: sarcoplasmic/ER Ca2+ ATPase (SERCA); design: method as in PMID 23875171, PMID 12076251; conditions: ref 49 and 55; cited from earlier work
# hCA-IX = test system: hCA-IX; design: method as in PMID 23875171, PMID 16290146; conditions: ref 49 and 56; cited from earlier work
# hCA-XII = test system: hCA-XII; design: method as in PMID 23875171, PMID 16290146; conditions: ref 49 and 56; cited from earlier work
# CYP3A4 = test system: CYP3A4; design: method as in PMID 10681375, PMID 22336956; conditions: ref 12,51; cited from earlier work
# [4] = Stability towards liver microsomes of mice
# [5] = design: method as in PMID 30072617; conditions: male baboon, 90 min p.i. ref 18; cited from earlier work
# log D7.4 by HPLC method = format: physicochemical; conditions: HPLC retention on ODP-50 4B column (Shodex Asahipak); pH 7.4, HPLC-based method
# [6] = Ex vivo biodistribution in healthy rats; conditions: for Biodistribution BAT: brown adipose tissue; for Biodistribution BAT / Biodistribution adrenals / Biodistribution blood / Biodistribution brain / Biodistribution femur / Biodistribution harderian gland / Biodistribution heart / Biodistribution intestine / Biodistribution kidneys / Biodistribution liver / Biodistribution lung / Biodistribution muscle / Biodistribution pancreas / Biodistribution skin & hair / Biodistribution spleen / Biodistribution stomach / Biodistribution testes / Biodistribution thymus / Biodistribution thyroid gland / Biodistribution urine (calc.) / Biodistribution femur (femur uptake, 18F-defluorination) / Biodistribution WAT: i.v., n = 8, mean ± SD; for Biodistribution WAT: white adipose tissue
# [7] = Metabolic stability in vivo: blood clearance, blood components, radiometabolites; design: species or system male Wistar rats; conditions: for half-life: male, Wistar, rat, arterial blood, iv, 70 MBq, i.v., arterial blood samples; for half-life / Intact compound in blood plasma: rats; for Radioactivity distribution in blood components: erythrocytes / Radioactivity distribution in blood components: plasma / Radioactivity distribution in blood components: plasma supernatant / Radioactivity distribution in blood components: plasma pellet (bound to plasma proteins) / Radioactivity distribution in blood components: plasma pellet: rat blood; for Radioactivity distribution in blood components: plasma pellet (bound to plasma proteins): + TCA precipitation; for Intact compound in blood plasma: radio-HPLC
# [8] = read-out: t1/2 distribution (blood clearance of intact compound)
# [9] = read-out: t1/2 elimination (blood clearance of intact compound)
compound,measurement,setting,value
Cc1ccc(-c2cc(C(F)(F)F)nn2-c2ccc(S(N)(=O)=O)cc2)cc1 [Celecoxib],IC50,[1]; ref 52,3.5 µM
same,IC50,[1]; ref 53,48 µM
same,IC50,protein kinase B (PKB),28 µM
same,IC50,[2],16 µM
same,IC50,[3],35 µM
same,IC50,hCA-IX,0.016 µM
same,IC50,hCA-XII,0.018 µM
same,extent of metabolism to the hydroxyl form by CYP3A4,CYP3A4,< 25%
"C[C@]12CC[C@H]3[C@@H](CCC4=CC(=O)CC[C@@]43C)[C@@H]1CC[C@@H]2O [Testosteron, reference compound]",conversion by mouse liver microsomes (positive control for oxidation),[4],Complete conversion
[11CH3]c1ccc(-c2cc(C(F)(F)F)nn2-c2ccc(S(N)(=O)=O)cc2)cc1 [[^11C]celecoxib],intact radiotracer in blood,[5],17%
"Cc1ccc(-c2cc(C[18F])nn2-c2ccc(S(C)(=O)=O)cc2)cc1 [[^18F]5a, 3-([^18F]fluoromethyl)-1-[4-(methylsulfonyl)phenyl]-5-(p-tolyl)-1H-pyrazole]",chromatographic logD,log D7.4 by HPLC method,2.72
same,liver-to-bladder ratio (hepatobiliary vs renal excretion),[6]; 60 min p.i.,2.3
same,Biodistribution BAT,[6]; 5 min p.i.,2.21 ± 0.91 SUV
same,Biodistribution BAT,[6]; 60 min p.i.,1.13 ± 0.29 SUV
same,Biodistribution adrenals,[6]; 5 min p.i.,2.25 ± 1.19 SUV
same,Biodistribution blood,[6]; 5 min p.i.,0.46 ± 0.15 SUV
same,Biodistribution brain,[6]; 5 min p.i.,0.46 ± 0.14 SUV
same,Biodistribution femur,[6]; 5 min p.i.,0.96 ± 0.53 SUV
same,Biodistribution harderian gland,[6]; 5 min p.i.,1.5 ± 0.6 SUV
same,Biodistribution heart,[6]; 5 min p.i.,0.79 ± 0.23 SUV
same,Biodistribution intestine,[6]; 5 min p.i.,6.78 ± 2.69 %ID
same,Biodistribution kidneys,[6]; 5 min p.i.,1.53 ± 0.49 SUV
same,Biodistribution liver,[6]; 5 min p.i.,3.84 ± 1.52 SUV
same,Biodistribution lung,[6]; 5 min p.i.,0.89 ± 0.38 SUV
same,Biodistribution muscle,[6]; 5 min p.i.,0.35 ± 0.18 SUV
same,Biodistribution pancreas,[6]; 5 min p.i.,0.97 ± 0.27 SUV
same,Biodistribution skin & hair,[6]; 5 min p.i.,0.97 ± 0.31 SUV
same,Biodistribution spleen,[6]; 5 min p.i.,0.53 ± 0.24 SUV
same,Biodistribution stomach,[6]; 5 min p.i.,0.87 ± 0.65 %ID
same,Biodistribution testes,[6]; 5 min p.i.,0.34 ± 0.16 SUV
same,Biodistribution thymus,[6]; 5 min p.i.,0.76 ± 0.18 SUV
same,Biodistribution thyroid gland,[6]; 5 min p.i.,0.71 ± 0.4 SUV
same,Biodistribution urine (calc.),[6]; 5 min p.i.,3.32 ± 4.35 %ID
same,Biodistribution adrenals,[6]; 60 min p.i.,1.85 ± 1.91 SUV
same,Biodistribution blood,[6]; 60 min p.i.,0.12 ± 0.04 SUV
same,Biodistribution brain,[6]; 60 min p.i.,0.12 ± 0.04 SUV
same,"Biodistribution femur (femur uptake, 18F-defluorination)",[6]; 60 min p.i.,4.1 ± 0.6 SUV
same,Biodistribution harderian gland,[6]; 60 min p.i.,0.64 ± 0.28 SUV
same,Biodistribution heart,[6]; 60 min p.i.,0.15 ± 0.02 SUV
same,Biodistribution intestine,[6]; 60 min p.i.,19.43 ± 2.27 %ID
same,Biodistribution kidneys,[6]; 60 min p.i.,0.36 ± 0.19 SUV
same,Biodistribution liver,[6]; 60 min p.i.,0.78 ± 0.2 SUV
same,Biodistribution lung,[6]; 60 min p.i.,0.19 ± 0.06 SUV
same,Biodistribution muscle,[6]; 60 min p.i.,0.21 ± 0.1 SUV
same,Biodistribution pancreas,[6]; 60 min p.i.,0.44 ± 0.28 SUV
same,Biodistribution skin & hair,[6]; 60 min p.i.,0.39 ± 0.2 SUV
same,Biodistribution spleen,[6]; 60 min p.i.,0.18 ± 0.07 SUV
same,Biodistribution stomach,[6]; 60 min p.i.,1.06 ± 0.42 %ID
same,Biodistribution testes,[6]; 60 min p.i.,0.27 ± 0.17 SUV
same,Biodistribution thymus,[6]; 60 min p.i.,0.28 ± 0.11 SUV
same,Biodistribution thyroid gland,[6]; 60 min p.i.,0.67 ± 0.37 SUV
same,Biodistribution urine (calc.),[6]; 60 min p.i.,8.55 ± 2.53 %ID
same,Biodistribution WAT,[6]; 5 min p.i.,1.45 ± 0.53 SUV
same,Biodistribution WAT,[6]; 60 min p.i.,1.67 ± 0.23 SUV
same,half-life,[7]; [8],0.6 min
same,half-life,[7]; [9],19.5 min
same,Radioactivity distribution in blood components: erythrocytes,"[7]; 60 min p.i., + TCA",19%
same,Radioactivity distribution in blood components: plasma,"[7]; 60 min p.i., + TCA",71%
same,Radioactivity distribution in blood components: plasma supernatant,"[7]; 60 min p.i., + TCA",42%
same,Radioactivity distribution in blood components: plasma pellet (bound to plasma proteins),[7]; 60 min p.i.,25%
same,Radioactivity distribution in blood components: erythrocytes,"[7]; 60 min p.i., - TCA",17%
same,Radioactivity distribution in blood components: plasma,"[7]; 60 min p.i., - TCA",67%
same,Radioactivity distribution in blood components: plasma pellet,"[7]; 60 min p.i., - TCA",1%
same,Radioactivity distribution in blood components: plasma supernatant,"[7]; 60 min p.i., - TCA",80%
same,Intact compound in blood plasma,[7]; 20 min p.i.,46%
same,Intact compound in blood plasma,[7]; 60 min p.i.,28%
Cc1ccc(-c2cc(CC[18F])nn2-c2ccc(S(C)(=O)=O)cc2)cc1 [[^18F]5b],chromatographic logD,log D7.4 by HPLC method,2.65
same,liver-to-bladder ratio (hepatobiliary vs renal excretion),[6]; 60 min p.i.,2.6
same,Biodistribution BAT,[6]; 5 min p.i.,2.79 ± 0.85 SUV
same,Biodistribution BAT,[6]; 60 min p.i.,1.12 ± 0.22 SUV
same,Biodistribution adrenals,[6]; 5 min p.i.,2.95 ± 0.73 SUV
same,Biodistribution blood,[6]; 5 min p.i.,0.32 ± 0.02 SUV
same,Biodistribution brain,[6]; 5 min p.i.,0.5 ± 0.1 SUV
same,Biodistribution femur,[6]; 5 min p.i.,0.6 ± 0.05 SUV
same,Biodistribution harderian gland,[6]; 5 min p.i.,2.37 ± 0.19 SUV
same,Biodistribution heart,[6]; 5 min p.i.,0.86 ± 0.07 SUV
same,Biodistribution intestine,[6]; 5 min p.i.,14.17 ± 1.43 %ID
same,Biodistribution kidneys,[6]; 5 min p.i.,2 ± 0.42 SUV
same,Biodistribution liver,[6]; 5 min p.i.,3.37 ± 0.63 SUV
same,Biodistribution lung,[6]; 5 min p.i.,1.06 ± 0.06 SUV
same,Biodistribution muscle,[6]; 5 min p.i.,0.63 ± 0.09 SUV
same,Biodistribution pancreas,[6]; 5 min p.i.,1.6 ± 0.16 SUV
same,Biodistribution skin & hair,[6]; 5 min p.i.,0.98 ± 0.09 SUV
same,Biodistribution spleen,[6]; 5 min p.i.,0.84 ± 0.12 SUV
same,Biodistribution stomach,[6]; 5 min p.i.,1.35 ± 0.6 %ID
same,Biodistribution testes,[6]; 5 min p.i.,0.47 ± 0.05 SUV
same,Biodistribution thymus,[6]; 5 min p.i.,1.09 ± 0.23 SUV
same,Biodistribution thyroid gland,[6]; 5 min p.i.,1.01 ± 0.1 SUV
same,Biodistribution urine (calc.),[6]; 5 min p.i.,0.02 ± 1.08 %ID
same,Biodistribution adrenals,[6]; 60 min p.i.,0.9 ± 0.13 SUV
same,Biodistribution blood,[6]; 60 min p.i.,0.08 ± 0.02 SUV
same,Biodistribution brain,[6]; 60 min p.i.,0.09 ± 0.01 SUV
same,"Biodistribution femur (femur uptake, 18F-defluorination)",[6]; 60 min p.i.,1.0 ± 0.2 SUV
same,Biodistribution harderian gland,[6]; 60 min p.i.,1.08 ± 0.18 SUV
same,Biodistribution heart,[6]; 60 min p.i.,0.18 ± 0.02 SUV
same,Biodistribution intestine,[6]; 60 min p.i.,41.52 ± 3.98 %ID
same,Biodistribution kidneys,[6]; 60 min p.i.,0.57 ± 0.14 SUV
same,Biodistribution liver,[6]; 60 min p.i.,0.74 ± 0.14 SUV
same,Biodistribution lung,[6]; 60 min p.i.,0.25 ± 0.04 SUV
same,Biodistribution muscle,[6]; 60 min p.i.,0.23 ± 0.05 SUV
same,Biodistribution pancreas,[6]; 60 min p.i.,0.57 ± 0.14 SUV
same,Biodistribution skin & hair,[6]; 60 min p.i.,0.32 ± 0.09 SUV
same,Biodistribution spleen,[6]; 60 min p.i.,0.28 ± 0.08 SUV
same,Biodistribution stomach,[6]; 60 min p.i.,0.94 ± 0.58 %ID
same,Biodistribution testes,[6]; 60 min p.i.,0.24 ± 0.06 SUV
same,Biodistribution thymus,[6]; 60 min p.i.,0.23 ± 0.04 SUV
same,Biodistribution thyroid gland,[6]; 60 min p.i.,0.27 ± 0.06 SUV
same,Biodistribution urine (calc.),[6]; 60 min p.i.,15.85 ± 2.16 %ID
same,Biodistribution WAT,[6]; 5 min p.i.,1.73 ± 0.84 SUV
same,Biodistribution WAT,[6]; 60 min p.i.,1.81 ± 0.8 SUV
same,half-life,[7]; [8],1 min
same,half-life,[7]; [9],20.7 min
same,Radioactivity distribution in blood components: erythrocytes,"[7]; 60 min p.i., + TCA",23%
same,Radioactivity distribution in blood components: plasma,"[7]; 60 min p.i., + TCA",71%
same,Radioactivity distribution in blood components: plasma supernatant,"[7]; 60 min p.i., + TCA",35%
same,Radioactivity distribution in blood components: plasma pellet (bound to plasma proteins),[7]; 60 min p.i.,29%
same,Radioactivity distribution in blood components: erythrocytes,"[7]; 60 min p.i., - TCA",21%
same,Radioactivity distribution in blood components: plasma,"[7]; 60 min p.i., - TCA",67%
same,Radioactivity distribution in blood components: plasma pellet,"[7]; 60 min p.i., - TCA",1%
same,Radioactivity distribution in blood components: plasma supernatant,"[7]; 60 min p.i., - TCA",72%
same,Intact compound in blood plasma,[7]; 20 min p.i.,35%
same,Intact compound in blood plasma,[7]; 60 min p.i.,30%
same,glucuronidation in murine liver microsomes,"[4]; oxidative conditions plus MgCl2 5 mM, alamethicin 50 μg/mL, UDPGA 5 mM",not observed

# — PMC9057277 (RSC Advances, 2020)
